The text below walks through data of ChEMBL document CHEMBL4680264, “Progress toward a Glycoprotein VI Modulator for the Treatment of Thrombosis” (J Med Chem, 2020).

Assay [1] can be described thus: Inhibition of ADP-stimulated human platelet aggregation assessed as ADP light transmission at 50 uM preincubated for 5 min followed by ADP stimulation by light transmission aggregometry (reference value: 62 +/- 3%). It counts as functional. On the set-up: scale not given: the % may be the effect or the level left.
Assay [2] deals with T1, Thromboxane A2 receptor (Homo sapiens) (UniProt P21731).
T1 sequence (whole entry): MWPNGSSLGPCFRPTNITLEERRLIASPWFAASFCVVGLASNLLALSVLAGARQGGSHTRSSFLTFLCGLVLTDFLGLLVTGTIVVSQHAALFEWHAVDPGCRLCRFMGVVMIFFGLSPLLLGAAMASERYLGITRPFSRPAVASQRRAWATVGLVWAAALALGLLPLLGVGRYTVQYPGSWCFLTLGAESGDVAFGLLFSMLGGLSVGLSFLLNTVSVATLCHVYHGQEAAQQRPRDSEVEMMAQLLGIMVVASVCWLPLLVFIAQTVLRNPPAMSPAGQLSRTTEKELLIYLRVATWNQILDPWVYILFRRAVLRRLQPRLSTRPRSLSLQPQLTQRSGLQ
The experiment in a line: Modulation of TxA2 receptor in human platelet suspension assessed as lowest concentration that reduced U46619-induced platelet aggregation preincubated for 5 min followed by U46619 stimulation by light transmission aggregometry. The class given is tissue-based. As to conditions: filed as modulator.

In assay [3] the target is T2, Platelet glycoprotein VI (Homo sapiens, UniProt Q9HCN6).
T2 sequence (Q9HCN6 whole entry): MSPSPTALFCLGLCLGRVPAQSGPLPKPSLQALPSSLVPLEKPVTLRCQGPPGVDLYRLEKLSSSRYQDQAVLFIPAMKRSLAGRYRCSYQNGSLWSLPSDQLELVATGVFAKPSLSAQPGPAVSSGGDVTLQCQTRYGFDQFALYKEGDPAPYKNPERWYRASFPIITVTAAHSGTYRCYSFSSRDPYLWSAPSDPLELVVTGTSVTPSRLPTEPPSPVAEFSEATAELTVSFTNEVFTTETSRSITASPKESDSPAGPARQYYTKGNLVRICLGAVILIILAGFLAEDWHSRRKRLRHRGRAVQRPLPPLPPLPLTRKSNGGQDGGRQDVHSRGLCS
The assay can be described thus: Binding affinity to recombinant GP6 (unknown origin) at protein to compound ratio of 1 : 1 to 1 : 10 by 2D 15N-1H TROSY-HSQC NMR spectroscopy.

Assay [4] is described as follows: Modulation of GP6/FcRgamma in human platelet-rich plasma assessed as reduction in convulxin-induced platelet aggregation.
The nature of assay [5]: Modulation of GP6 in porcine platelet-rich plasma assessed as reduction in convulxin-induced platelet aggregation. The class given is tissue-based. The note with it: Sus scrofa.
In assay [6] the target is T2, Platelet glycoprotein VI. The assay can be described thus: Modulation of GP6 in human platelets assessed as reduction in convulxin-induced P-selectin expression preincubated for 20 mins followed by convulxin stimulation and measured after 1 min by Western blot analysis. It counts as tissue-based.
A short description of assay [7]: Inhibition of collagen-induced human platelet aggregation preincubated for 20 mins followed by collagen stimulation and measured for 10 mins by aggregometry. The class given is functional, tissue-based.
A short description of assay [8]: Inhibition of collagen-induced platelet aggregation in human platelet suspension preincubated for 10 mins followed by collagen stimulation by light transmission-based assay. It counts as functional, tissue-based.
The target of assay [9] is T3, Platelet glycoprotein VI (Homo sapiens) (UniProt Q9HCN6).
T3 sequence (whole entry): T2 sequence (Q9HCN6 whole entry)
As to conditions: Plasma, filed as modulator, time 15.0 min.

Assay [10] can be described thus: Antagonist activity at GP6 in human platelet assessed as reduction in CRP-induced platelet-aggregation preincubated for 60 secs followed by […] by light transmission aggregometry.
Assay [11] addresses T2, Platelet glycoprotein VI. The experiment in a line: Binding affinity to human platelet lysate GP6 at 0.1 uM by surface plasmon resonance analysis. It counts as subcellular.
Assay [12] can be described thus: Inhibition of PAF-induced platelet aggregation in rabbit platelet suspension preincubated for 10 mins followed by PAF stimulation by turbidimetric method. The note with it: Oryctolagus cuniculus. The class given is functional, tissue-based.
A short description of assay [13]: Inhibition of ADP-induced platelet aggregation in rabbit platelet suspension preincubated for 10 mins followed by ADP stimulation by turbidimetric method. It counts as functional, tissue-based. The note with it: Oryctolagus cuniculus.
The nature of assay [14]: Inhibition of arachidonic acid-induced platelet aggregation in rabbit platelet suspension preincubated for 10 mins followed by AA stimulation by turbidimetric method. The class given is functional, tissue-based. The note with it: Oryctolagus cuniculus.
For assay [15], the target named is T2, Platelet glycoprotein VI. The experiment in a line: Binding affinity to human platelet lysate GP6 at 100 uM by surface plasmon resonance analysis. It counts as subcellular.
Assay [16] in a line: Inhibition of collagen-induced platelet aggregation in human platelet suspension preincubated for 3 mins followed by collagen stimulation and measured after 6 mins by lumi-aggregometry. It counts as functional, tissue-based.
The nature of assay [17]: Inhibition of human platelet lamellipodia formation on CRP-XL 1 umol/L preincubated for 4 mins followed by CRP-XL addition and measured after 45 mins (reference value: 69%). The class given is functional. As to conditions: dose 1 µmol/L, time 49 min, at 1 µM.
Assay [18] can be described thus: Inhibition of human platelet adhesion to immobilised CRP-XL at 1 umol/L preincubated for 4 mins followed by CRP-XL addition and measured after 45 mins relative to control. It counts as functional. The note with it: 49 min, dose 1 µmol/L.
Assay [19] addresses T1, Thromboxane A2 receptor (Homo sapiens). The assay can be described thus: Inhibition of [3H]-U46619 binding to TxA2 receptor in human platelet suspension at 0.3 uM incubated for 30 mins by liquid scintillation counting method relative to control. It counts as tissue-based.
Assay [20] has the same target. The assay can be described thus: Inhibition of [3H]-U46619 binding to TxA2 receptor in human platelet suspension at 0.7 uM incubated for 30 mins by liquid scintillation counting method relative to control. It counts as tissue-based.
Assay [21] can be described thus: Inhibition of arachidonic acid-induced platelet aggregation in human platelet suspension preincubated for 3 mins followed by […] and measured after 6 mins by lumi-aggregometry. The class given is functional, tissue-based.
A short description of assay [22]: Inhibition of ADP-induced platelet aggregation in human platelet suspension preincubated for 3 mins followed by […] and measured after 6 mins by lumi-aggregometry. It counts as functional, tissue-based.

With `CCOc1nc2cccc(C(=O)O)c2n1Cc1ccc(-c2ccccc2-c2nnn[nH]2)cc1`, the Activity in assay [1] is reported as 60%.
`CCCc1nc2c(C)cc(-c3nc4ccccc4n3C)cc2n1Cc1ccc(-c2ccccc2C(=O)O)cc1`: in assay [2], the MEC was found to be 5 µM. Besides, in assay [1], the Activity is 48%.
Turning to `CCCCC(=O)N(Cc1ccc(-c2ccccc2-c2nnn[nH]2)cc1)[C@H](C(=O)O)C(C)C`, the MEC in assay [2] is 50 µM. In [3], the Kd is 100 µM. Also, the Activity in assay [1] is reported as 53%.
`Cc1cccc(Nc2nc(N[C@@H]3CCCC[C@@H]3N)ncc2C(N)=O)c1`: the IC50 turned out to be 2.5 µM in [4], 0.35 µM in assay [5] and 0.048 µM in [6].
With `Cc1ccccc1-c1nn[nH]n1`, in assay [3], the Kd was determined as 1100 µM.
`C/C(O)=C(\C#N)C(=O)Nc1cc(Br)ccc1Br` yielded an IC50 in [7] of 2.8 µM.
In the case of `O=C(O)c1ccccc1-c1ccccc1`, the Kd in assay [3] turned out to be 1500 µM.
In the case of `c1ccc(-c2ccccc2-c2nn[nH]n2)cc1`, in assay [3], the Kd was determined as 360 µM.
On the same count and under the same terms, in the case of `c1ccc(CCCCOc2ccc(-c3ccccc3-c3nn[nH]n3)cc2)cc1` it was 850 µM; in that of `c1ccc(-c2cccc(-c3nn[nH]n3)c2)cc1`, 80 µM.
On the same count and under the same terms, in the case of `c1ccc(CCOc2ccc(-c3ccccc3-c3nn[nH]n3)cc2)cc1` it was 52 µM.
As to `O=C(O)Cc1cccc(OCCCN(Cc2cccc(C(F)(F)F)c2Cl)CC(c2ccccc2)c2ccccc2)c1`, the IC50 in assay [8] came to 0.03 µM.
With `CCCCc1nc(Cl)c(C=O)n1Cc1ccc(-c2ccccc2-c2nn[nH]n2)cc1`, the MEC in assay [9] is 500 µM.
`CN(C)CCCSc1ccccc1NC(=O)/C=C/c1ccccc1` [CINANSERIN]: the IC50 in assay [10] turned out to be 35 µM.
As for `NCCCC(=O)O` [GAMMA-AMINOBUTYRIC ACID], the Kd in assay [11] amounted to 0.0411 µM.
In the case of `C=C1C(=O)[C@@]23[C@H](O)C[C@@H]4C(C)(C)C(=O)CC[C@@]4(C)[C@@H]2CC[C@@H]1[C@H]3O` [GLAUCOCALYXIN A], the IC50 in assay [12] was 13.7 µM; in assay [13], 4.4 µM; in assay [14] it was 14.1 µM.
Compound `C=CCc1ccc(O)c(-c2ccc(O)c(CC=C)c2)c1` [HONOKIOL] yielded a Kd in assay [15] of 289 µM. In addition, the IC50 in assay [16] is 0.6 µM.
Take `C=CC(=O)N1CCC[C@@H](n2nc(-c3ccc(Oc4ccccc4)cc3)c3c(N)ncnc32)C1` [IBRUTINIB]: in assay [17], the “inhibition (INH)” value stood at 11%. For the same compound, the inhibition at 1 µM in assay [18] came to 70%.
With `CCCCC1=NC2(CCCC2)C(=O)N1Cc1ccc(-c2ccccc2-c2nnn[nH]2)cc1` [IRBESARTAN], in assay [19], the inhibition was found to be 50%. Besides, the MEC in assay [2] came out at 0.5 µM. For the same compound, the Activity in assay [1] was 38%.
`CCCCc1nc(Cl)c(CO)n1Cc1ccc(-c2ccccc2-c2nnn[nH]2)cc1` [LOSARTAN]: the figures for the MEC in [2] and in assay [9] were 0.5 µM and 500 µM, respectively. The inhibition in [20] turned out to be 50%. The Activity in [1] worked out at 39%.
Consider `CC(C)=CCC/C(C)=C/C=C/C(C)=C/C=C/C(C)=C/C=C/C=C(C)/C=C/C=C(C)/C=C/C=C(\C)CCC=C(C)C` [LYCOPENE], for which the results for the IC50 in assay [21], in assay [16] and in assay [22] were 6.8 µM, 5.8 µM and 6.2 µM, respectively.
With `CCCc1nc(C(C)(C)O)c(C(=O)O)n1Cc1ccc(-c2ccccc2-c2nnn[nH]2)cc1` [OLMESARTAN], the Kd in assay [3] is 300 µM.
With `O=S(=O)(c1ccccc1)N(CC(F)(F)F)c1ccc(C(O)(C(F)(F)F)C(F)(F)F)cc1` [T091317], the IC50 in assay [8] was above 0.05 µM.
With H-YSDTDWLYFSTS-OH, in assay [3], the Kd stood at 57 µM.
